Counter-ions that a name gives are not always drawn.
How the values were obtained:
[1] = tested on: male fatty Zucker rats; assay: In vivo oral glucose tolerance test in the rat; details: 100 mg/kg/day oral gavage
Description: 2. In vivo Oral Glucose Tolerance Test in the Rat
The studies were carried out in individually housed male fatty Zucker rats (n=10 per group) weighing ca. 250-500 g. The rats were kept on a normal 12/12 h light/dark cycle (lights on 07.00) and they were allowed food (lab chow) and water ad libitum except for during experiments, when they were fasted overnight before the glucose challenge.
The test substances of Formula I were suspended in 2% polyethylenglycol (=PEG) 1% carboxymethylcellulose and administered by oral gavage at a dose of 100 mg/kg/day; ⅓ of the dose (1 ml/kg, 33 mg/ml) was administered at 08.30-09.30 h; the remaining […] (2 ml/kg; 33 mg/ml) was administered between 16.00-17.00 h and the last ⅓ dose was given the following morning. Control animals received only the vehicle. On the day of the test, 45 min after the final dose of test substance/vehicle a blood sample (0 min) was taken (tail vein) immediately after which the rats received an oral glucose challenge (1.25 g/kg; 118 mg/ml). Further blood samples were taken at 30, 60, 90, 120 min after the glucose challenge. The second drop of blood of each sample was placed on a glucose test strip before this was placed in the glucose meter for determination of blood glucose level (Life Scan One Touch Ultra Blood® Glucose Meter and Life Scan One Touch Ultra® Test Strips; Life Scan Inc.; Milpitas, Calif. 95035). The remaining blood of each sample was spun and the plasma was frozen at −80° C. before analysis for insulin (1-2-3 Rat Insulin ELISA kit, Alpco Diagnostics).
The values obtained were plotted and the AUC for test compounds and vehicle (for glucose and insulin) were determined after which the percent control AUC, percent control maximum value and % control baseline were estimated, to determine the influence of the test compound on the glucose tolerance.

[2] = tested on: male C57Bl/6 mice; assay: Acute in vivo food intake test in mice; details: high caloric diet, 100 mg/kg/day oral gavage in two halves
Description: 3. Acute in vivo Food Intake Test in Mice
The studies were carried out in individually housed male C57Bl/6 mice (n=8 per group). The mice were kept on an inverted 12/12 h light/dark cycle (lights on 22:00). They were allowed food (high caloric diet) and water ad libitum. Food intake and water consumption was measured daily. The test compound of Formula I was suspended in 1% methylcellulose in water and 2% (v/v) of Poloxamer 188 (Lutrol F68®) and administered by oral gavage at a dose of 100 mg/kg/day.
In the test model described above, the test substances caused a decrease of the animals' 24 h food intake to the percentages of food intake when compared to control as given in table 3 below.

[3] = tested on: dietary obese female Wistar rats; assay: Chronic influence on food and water intake and body weight gain in vivo (carcass composition, plasma parameters); parameters: species or system rat; details: 28 days, mean ± SEM; for Plasma glucose / Plasma insulin / Plasma leptin: plasma day 29
Description: 4. Chronic Influence on Food and Water Intake and Body Weight Gain in vivo
Female Wistar rats (weight range 250-300 g; Charles River, Margate, Kent) were housed in pairs in polypropylene cages with solid floors and sawdust bedding at a temperature of 21±4° C. and 55±20% humidity. Animals were maintained on a reverse phase light-dark cycle (lights off for 8 hours from 10.00-18.00 h) during which time the room was illuminated by red light. Animals had free access to powdered high fat diet (VRF1 plus 20% lard), ground chocolate, ground peanuts and tap water at all times. The three different diets were contained in separate glass feeding jars with aluminium lids (Solmedia Laboratory Suppliers, Romford, Essex). […] Animals were housed in pairs for twelve weeks. At least two weeks before the start of the baseline readings, animals were housed individually in polypropylene cages with wire grid floors to enable the food intake of each rat to be recorded. Polypropylene trays with cage pads were placed beneath each cage to detect any food spillage.
At the start of the study, animals were weighed (to the nearest 0.1 g using an electronic top-pan balance) and allocated into 6 weight-matched treatment groups, each containing 10 animals. Following a 7 day baseline run-in period, during which time all animals were dosed orally once a day with vehicle (1% Tylose MH50, 0.1% poloxamer 188), rats were given vehicle or test compound of Formula I for 28 days as described in Table 4 below: […]
The test substance of example 2 was suspended in 1% Tylose MH50, 0.1% poloxamer 188 and administered by oral gavage (2 ml/kg). All dosing occurred at the onset of the 8 hours dark period (spanning the period immediately before and after lights out). The second treatments were given 4 hours after the first. Rats, feeding jars and water bottles were weighed (to the nearest 0.1 g) every day at the time of administration of vehicle or test substance. At each reading, the tray below each cage was examined for spilt food, which was returned to the appropriate jar before weighing. However, spillage of food from the feeding jars was negligible. Variations in body weight and energy levels of the different types of food were accounted for by expressing the food intake results in terms of kJ/kg rat weight. Water intake results were expressed in g/kg.
Animals were killed at the end of the study (by CO2 to minimize any fluid loss) on day 29 and blood samples (5 ml whole blood/animal) were collected by cardiac puncture. Plasma was separated by centrifugation and stored at −75° C. until analysis. Following blood collection carcasses were weighed, frozen and stored at −75° C. for body composition analysis. Body fat, protein, water and ash levels of the carcasses were determined using standard chemical analysis techniques. Only fat, protein, water and ash content were measured as other components (mainly carbohydrate) form less than 2% of total body composition.
Carcasses were individually milled at the temperature of liquid nitrogen, mixed and two representative samples taken. Carcass water was determined by freeze-drying the samples to constant weight. Carcass fat was determined on the freeze-dried samples using a modified Soxhlet extraction protocol (petroleum ether at 40-60° C.) with a Foss Soxtec® HT2 system (Foss UK Ltd, Wheldrake, UK) according to the manufacturers recommended protocol. Carcass protein was determined using a micro-Kjeldahl procedure on the freeze-dried samples using a Foss 2012® digestion block and Foss 2200® distilling unit (Foss UK Ltd). Residual carcass ash was determined by firing the freeze-dried samples at high temperatures using a muffle ashing furnace. Repeat determinations of the chemical analysis parameters were performed as necessary (e.g. if the duplicate samples differed by more than 1%).

[4] = 30 mg/kg po twice daily (0 h, 4 h)
[5] = 50 mg/kg po twice daily (0 h, 4 h)

Q: Which results are given for `NS(=O)(=O)N1CCN(c2ccccc2)CC1` [Example 2, N-Sulfamoyl-N′-phenylpiperazine hydrochloride]?
A: Glucose Baseline ([1]; 0 min sample before glucose challenge): 82 % of control; Insulin Baseline ([1]; 0 min sample before glucose challenge, plasma): 85 % of control; Glucose Maximal effect ([1]; oral glucose challenge 1.25 g/kg): 78 % of control; Glucose AUC ([1]; oral glucose challenge 1.25 g/kg, 0-120 min): 84 % of control; Insulin AUC ([1]; oral glucose challenge 1.25 g/kg, 0-120 min, plasma): 95 % of control; Insulin Maximal effect ([1]; oral glucose challenge 1.25 g/kg, plasma): 95 % of control; 24 h food intake [2]: 68 % of control; Carcass ash, mean percent final body weight [3, 4]: 3.24 ± 0.12%; Carcass ash, mean weight per rat [3, 4]: 12.13 ± 0.48 g; Carcass fat, mean percent final body weight [3, 4]: 22.8 ± 1.0 %; Carcass fat, mean weight per rat [3, 4]: 87.9 ± 3.8 g; Carcass protein, mean percent final body weight [3, 4]: 17.4 ± 0.3*° %; Carcass protein, mean weight per rat [3, 4]: 64.8 ± 1.2 g; Carcass water, mean percent final body weight [3, 4]: 55.2 ± 0.8 %; Carcass water, mean weight per rat [3, 4]: 205.8 ± 3.1 g; Carcass weight, mean per rat [3, 4]: 375.4 ± 4.8 g; Plasma glucose ([3]; 30 mg/kg po twice daily): 8.6 ± 0.5 mM; Plasma insulin ([3]; 30 mg/kg po twice daily): 1.53 ± 0.33 ng/mL; Plasma leptin ([3]; 30 mg/kg po twice daily): 68.8 ± 9.4 ng/mL; Carcass ash, mean percent final body weight [3, 5]: 3.14 ± 0.1%; Carcass ash, mean weight per rat [3, 5]: 11.38 ± 0.29 g; Carcass fat, mean percent final body weight [3, 5]: 22.3 ± 1.8 %; Carcass fat, mean weight per rat [3, 5]: 83.6 ± 6.9 g; Carcass protein, mean percent final body weight [3, 5]: 17.3 ± 0.4*° %; Carcass protein, mean weight per rat [3, 5]: 62.8 ± 1.3 g; Carcass water, mean percent final body weight [3, 5]: 55.7 ± 1.2 %; Carcass water, mean weight per rat [3, 5]: 202.2 ± 3.6 g; Carcass weight, mean per rat [3, 5]: 365.6 ± 3.8 g; Plasma glucose ([3]; 50 mg/kg po twice daily): 7.9 ± 0.5 mM; Plasma insulin ([3]; 50 mg/kg po twice daily): 1.40 ± 0.41 ng/mL; Plasma leptin ([3]; 50 mg/kg po twice daily): 58.8 ± 11.6 ng/mL
